# Patent US8563714B2, “Bridged spiro [2.4] heptane derivatives as ALX receptor and/or FPRL2 agonists” (Actelion Pharmaceuticals Ltd., priority 2009, dated 2013)
# How the values were obtained:
# human ALX receptor = biological target: T1, human ALX receptor (Homo sapiens, UniProt P25090); assay: Intracellular calcium measurements (FLIPR), agonistic activity in HEK293-hALXR-Gα16 cells; type: cell-based; conditions: Fluo-4 calcium FLIPR, normalized to WKYMVm 10 nM
# T1 construct: expressed in transfected cells; host or cells: HEK293 (HEK293-hALXR-Gα16)
# T1 sequence (P25090 1-351): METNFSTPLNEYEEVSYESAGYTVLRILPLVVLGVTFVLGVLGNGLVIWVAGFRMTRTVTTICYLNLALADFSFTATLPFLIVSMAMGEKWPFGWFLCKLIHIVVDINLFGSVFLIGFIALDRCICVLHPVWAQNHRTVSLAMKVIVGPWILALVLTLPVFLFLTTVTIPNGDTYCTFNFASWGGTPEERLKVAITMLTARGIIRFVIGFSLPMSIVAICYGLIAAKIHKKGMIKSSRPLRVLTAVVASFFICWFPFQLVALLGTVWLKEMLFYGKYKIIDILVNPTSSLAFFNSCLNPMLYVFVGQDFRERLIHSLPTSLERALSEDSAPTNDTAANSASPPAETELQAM
# How it was run: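 HEK293 cells expressing hALXR and Gα16 were loaded with 1 μM Fluo-4 AM and 20 mM HEPES for 60 min at 37°C, then exposed to serially diluted compound. FLIPR fluorescence was read at ex 488/em 540 nm. Baseline-subtracted peak responses were normalized to 10 nM WKYMVm.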
# human FPRL2 = biological target: T2, human FPRL2 (Homo sapiens, UniProt P25089); assay: Intracellular calcium measurements (FLIPR), agonistic activity in HEK293-hFPRL2-Gα16 cells; type: cell-based; conditions: Fluo-4 calcium FLIPR, normalized to GLY14-Humanin 100 nM
# T2 construct: expressed in transfected cells; host or cells: HEK293 (HEK293-hFPRL2-Gα16)
# T2 sequence (P25089 1-353): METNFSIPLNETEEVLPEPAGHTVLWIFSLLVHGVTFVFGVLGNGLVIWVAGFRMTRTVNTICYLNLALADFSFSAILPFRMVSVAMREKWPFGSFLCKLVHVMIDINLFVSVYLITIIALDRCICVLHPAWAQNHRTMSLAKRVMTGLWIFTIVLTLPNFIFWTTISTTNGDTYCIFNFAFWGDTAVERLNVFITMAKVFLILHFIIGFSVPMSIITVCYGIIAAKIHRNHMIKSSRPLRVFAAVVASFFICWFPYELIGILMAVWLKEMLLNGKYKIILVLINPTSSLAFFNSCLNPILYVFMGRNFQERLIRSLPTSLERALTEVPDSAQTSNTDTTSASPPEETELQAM
# How it was run: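 Peak values after baseline subtraction are expressed relative to 100 nM Gly14-Humanin; compounds diluted in assay buffer from 10 mM DMSO stocks.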
SMILES,EC50 (human ALX receptor),EC50 (human FPRL2)
"COc1ccc(CCNC(=O)[C@H]2[C@H](C(=O)NCCCCN3CCCC3)[C@H]3C=C[C@@H]2C32CC2)cc1Br (racemic) [Example 384, (5R*)—N^5-(2-(3-Bromo-4-methoxyphenyl)ethyl)-(6R*)—N^6-(4-pyrrolidino-butyl)-(4S*,7R*)-[4,7-ethenylene-spiro[2.4]heptane]-5,6-dicarboxamide]",10300 nM,72 nM
"Cc1ccc(CCNC(=O)[C@H]2[C@H](C(=O)NCCCCN3CCCC3)[C@H]3C=C[C@@H]2C32CC2)c(C)c1 (racemic) [Example 385, (5R*)—N^5-(2-(2,4-Dimethylphenyl)ethyl)-(6R*)—N^6-(4-pyrrolidino-butyl)-(4S*,7R*)-[4,7-ethenylene-spiro[2.4]heptane]-5,6-dicarboxamide]",> 25000 nM,27 nM
"CNCCNC(=O)[C@H]1[C@H](C(=O)NCc2nc(C(C)=O)cs2)[C@@H]2C=C[C@H]1C21CC1 (racemic) [Example 396, (5R*)—N^5-[(4-Acetyl-thiazol-2-yl)methyl]-(6R*)—N^6-(2-methylamino-ethyl)-(4S*,7R*)-[4,7-ethenylene-spiro[2.4]heptane]-5,6-dicarboxamide]",1040 nM,872 nM
"O=C(NCCCCN1CCCC1)[C@H]1[C@H](C(=O)Nc2ccc(C(F)(F)F)nc2)[C@@H]2C=C[C@H]1C21CC1 (racemic) [Example 422, (5R*)—N^5-(2-Trifluoromethyl-pyridin-5-yl)-(6R*)—N^6-(4-pyrrolidin-1-yl-butyl)-(4S*,7R*)-[4,7-ethenylene-spiro[2.4]heptane]-5,6-dicarboxamide]",11 nM,99 nM
"NCCCCNC(=O)[C@H]1[C@H](C(=O)Nc2ccc(Br)cc2)[C@@H]2C=C[C@H]1C21CC1 (relative stereo) [Example 5, (5R*)—N^5-(4-Bromophenyl)-(6R*)—N^6-(4-amino-butyl)-(4S*,7R*)-[4,7-ethenylene-spiro[2.4]heptane]-5,6-dicarboxamide]",0.34 nM,1160 nM
"Cc1nc(CCNC(=O)[C@H]2[C@H](C(=O)Nc3ccc(Br)cc3)[C@@H]3C=C[C@H]2C32CC2)[nH]c1C (relative stereo) [Example 64, (5R*)—N^5-(4-Bromophenyl)-(6R*)—N^6-(2-(4,5-dimethyl-1H-imidazol-2-yl)-ethyl)-(4S*,7R*)-[4,7-ethenylene-spiro[2.4]heptane]-5,6-dicarboxamide]",19 nM,68 nM
"CCCCNC(=O)[C@H]1[C@H](C(=O)Nc2ccc(Br)cc2)[C@@H]2C=C[C@H]1C21CC1 (relative stereo) [Example 74, (5R*)—N^5-(4-Bromophenyl)-(6R*)—N^6-(butyl)-(4S*,7R*)-[4,7-ethenylene-spiro[2.4]heptane]-5,6-dicarboxamide]",72 nM,18200 nM
"Cc1nc(CCNC(=O)[C@H]2[C@H](C(=O)Nc3ccc(Br)cc3)[C@H]3C=C[C@@H]2C32CC2)[nH]c1C (relative stereo) [Example 199, (5R*)—N^5-(2-(4,5-Dimethyl-1H-imidazol-2-yl)-ethyl)-(6R*)—N^6-(4-bromophenyl)-(4S*,7R*)-[4,7-ethenylene-spiro[2.4]heptane]-5,6-dicarboxamide]",77 nM,7.4 nM
"NCCCCNC(=O)[C@H]1[C@H](C(=O)Nc2ccc(Br)cc2)[C@H]2C=C[C@@H]1C21CC1 (relative stereo) [Example 339, (5R*)—N^5-(4-Aminobutyl)-(6R*)—N^6-(4-bromophenyl)-(4S*,7R*)-[4,7-ethenylene-spiro[2.4]heptane]-5,6-dicarboxamide]",19 nM,1480 nM
"NCCCCCNC(=O)[C@H]1[C@H](C(=O)Nc2ccc(Br)cc2)[C@H]2C=C[C@@H]1C21CC1 (relative stereo) [Example 340, (5R*)—N^5-(5-Aminopentyl)-(6R*)—N^6-(4-bromophenyl)-(4S*,7R*)-[4,7-ethenylene-spiro[2.4]heptane]-5,6-dicarboxamide]",30 nM,255 nM
"O=C(Nc1ccc(Br)cc1)C1C(C(=O)NC2CCC(CN3CCCC3)CC2)C2C=CC1C21CC1 (single isomer, unassigned) [Example 218]",2.1 nM,356 nM
"O=C(Nc1ccc(Br)cc1)C1C(C(=O)NC2CCC(CN3CCCC3)CC2)C2C=CC1C21CC1 (single isomer, unassigned) [Example 222]",208 nM,398 nM
"O=C(Nc1ncc(Br)s1)C1C(C(=O)NC2CCC(CO)CC2)C2CCC1C21CC1 (single isomer, unassigned) [Example 410]",855 nM,18200 nM
"O=C(Nc1ncc(Br)s1)C1C(C(=O)NC2CCC(CO)CC2)C2CCC1C21CC1 (single isomer, unassigned) [Example 411]",61 nM,6520 nM
"NCC1CCC(NC(=O)C2C(C(=O)Nc3ccc(Br)cc3)C3C=CC2C32CC2)CC1 (single isomer, unassigned) [Example 420]",0.13 nM,1150 nM
"NCC1CCC(NC(=O)C2C(C(=O)Nc3ccc(Br)cc3)C3C=CC2C32CC2)CC1 (single isomer, unassigned) [Example 421]",13 nM,1700 nM
"NCCCCCNC(=O)C1C(C(=O)Nc2ccc(Br)cc2)C2C=CC1C21CC1 (stereo not drawn) [Example 1, (5R*)—N^5-(4-Bromophenyl)-(6R*)—N^6-(5-amino-pentyl)-(4S*,7R*)-[4,7-ethenylene-spiro[2.4]heptane]-5,6-dicarboxamide]",0.16 nM,571 nM
"O=C(NCCCCN1CCCC1)[C@H]1[C@H](C(=O)Nc2ccc(Br)cc2)[C@@H]2C=C[C@H]1C21CC1 [Example 2, (5R)—N^5-(4-Bromophenyl)-(6R)—N^6-(4-pyrrolidin-1-yl-butyl)-(4S,7R)-[4,7-ethenylene-spiro[2.4]heptane]-5,6-dicarboxamide]",0.1 nM,46 nM
"CN(C)CCNC(=O)[C@H]1[C@H](C(=O)Nc2ccc(Br)cc2)[C@@H]2C=C[C@H]1C21CC1 [Example 6, (5R)—N^5-(4-Bromophenyl)-(6R)—N^6-(2-N,N-dimethyl-amino-ethyl)-(4S,7R)-[4,7-ethenylene-spiro[2.4]heptane]-5,6-dicarboxamide]",0.41 nM,1260 nM
"O=C(NCCCO)[C@H]1[C@H](C(=O)Nc2ccc(Br)cc2)[C@@H]2C=C[C@H]1C21CC1 [Example 12, (5R)—N^5-(4-Bromophenyl)-(6R)—N^6-(3-hydroxy-propyl)-(4S,7R)-[4,7-ethenylene-spiro[2.4]heptane]-5,6-dicarboxamide]",1 nM,1300 nM
"NC(=O)CCNC(=O)[C@H]1[C@H](C(=O)Nc2ccc(Br)cc2)[C@@H]2C=C[C@H]1C21CC1 [Example 13, (5R)—N^5-(4-Bromophenyl)-(6R)—N^6-(2-carbamoyl-ethyl)-(4S,7R)-[4,7-ethenylene-spiro[2.4]heptane]-5,6-dicarboxamide]",1.1 nM,4620 nM
"CC(C)(C)OC(=O)NCCNC(=O)C1C(C(=O)Nc2ccc(Br)cc2)C2C=CC1C21CC1 (stereo not drawn) [Example 27, (5R*)—N^5-(4-Bromophenyl)-(6R*)—N^6-(2-tert-butoxycarbonyl-amino-ethyl)-(4S*,7R*)-[4,7-ethenylene-spiro[2.4]heptane]-5,6-dicarboxamide]",4.2 nM,1960 nM
"COCCNC(=O)[C@H]1[C@H](C(=O)Nc2ccc(Br)cc2)[C@@H]2C=C[C@H]1C21CC1 [Example 31, (5R)—N^5-(4-Bromophenyl)-(6R)—N^6-(2-methoxy-ethyl)-(4S,7R)-[4,7-ethenylene-spiro[2.4]heptane]-5,6-dicarboxamide]",5 nM,1410 nM
"COCCN(CCOC)C(=O)[C@H]1[C@H](C(=O)Nc2ccc(Br)cc2)[C@@H]2C=C[C@H]1C21CC1 [Example 63, (5R)—N^5-(4-Bromophenyl)-(6R)—N^6,N^6-bis-(2-methoxy-ethyl)-(4S,7R)-[4,7-ethenylene-spiro[2.4]heptane]-5,6-dicarboxamide]",24 nM,3950 nM
"CNC(=O)C(NC(=O)C1C(C(=O)Nc2ccc(Br)cc2)C2C=CC1C21CC1)C(C)(C)C [Example 96, (5R*)—N^5-(4-Bromophenyl)-(6R*)—N^6—[(2S)-3,3-dimethyl-1-(methylamino)-1-oxobutan-2-yl]-(4S*,7R*)-[4,7-ethenylene-spiro[2.4]heptane]-5,6-dicarboxamide]",373 nM,8050 nM
